From patent US6979664B1, “Composition for accelerating seed germination and plant growth” (Bios Agriculture Inc., priority 1998, dated 2005)
Several values for one entry are separate records, joined by “and”; a condition that tells them apart may be missing. Equal values may be shown once.

Tests used:
Format in all cases: in vivo
potato microtubers [1] = experiment: sprouting of microtubers cold-stored 3 weeks, dormancy-breaking agents incl. anti-ABA; conditions: evaluated at 2 weeks
Protocol: Microtubers (200–600 mg) were cold-stored for 3 wk prior to the experiment. Seven microtubers were used per treatment. Treatments included 24 h soaks in anti-ABA or GA3 (500 and 250 mg l^−1, respectively) applied alone or in combination, GA3 (500 mg l^−1 in combination with 100% signal solution, and water. Bromoethane (0.2 ml l^−1) and control treatments were also performed. Observations were made after 2 wk in the dark at room temperature (20° C.). Data included number of sprouted microtubers and number of multiple sprouts. Means of sprout number were calculated only from microtubers that had sprouted.

potato microtubers [2] = experiment: dormancy breaking of potato microtubers cold-stored 8 wk; conditions: GA3 500 mgl^−1
Protocol: Treatments were carried out on microtubers (200–400 mg) that had been cold-stored for 8 wk to determine their effect on breaking dormancy. Signal solution was used at full strength (100%) or diluted to 20% (as for soybean), 12%, or 6% of full strength. GA3 (500 mg l^−1), water soaking, and control treatments were performed for comparison purposes. Microtuber soaking treatments lasted 24 h and then incubation occurred either in the light (40 μmol m^−2s^−1 cool-white fluorescent) or in the dark. Five microtubers were used in each treatment. Observations for sprouted microtubers were made at 1 and 2 wk.
One hundred % signal solution was as effective as GA3 (500 mg l^−1) when evaluated after 1 wk with respect to the number of sprouted microtubers. […] One hundred % signal solution induced multiple sprouts and dark incubation favoured sprouting as compared with the light regime after 1 wk of incubation. The exact cause of dark incubation favouring 100% signal solution is not understood.

potato minitubers [3] = experiment: sprouting and multiple sprouting of minitubers cold-stored 0, 2 or 8 wk; conditions: for Sprouting (number of sprouted tubers): GA3 500 mg l^−1 / 100% signal solution / Bromoethane 0.2 ml l^−1; for number of tubers with multiple sprouts: six tubers per treatment, doses as title
Protocol: (§1) Microtubers (200–500 mg) cold-stored for 8 wk and minitubers (20–35 g) cold-stored for 0, 2, or 8 wk were used for these experiments. BE (0.2 ml l^−1) and mechanical injury (cutting in half, microwaving at full power for 10 sec) were compared with GA3 (500 mgl^−1), 100% signal solution, water soaking, and control treatments. Six microtubers or minitubers were used per treatment. Observations were made at 1, 2, 3, and 4 wk intervals and the number of sprouted tubers were counted. The evaluation period was extended because tubers with little or no cold storage treatment took longer to sprout.

potato minitubers [4] = experiment: harvests after 60 d from minitubers forced to break dormancy (greenhouse pots); conditions: GA3 500 mg l^−1 / 100% signal solution / BE 0.2 m l^−1; for Mean number of tubers produced per replicate / Mean fresh weight: harvest after 60 d; for Mean number sprouts at planting ± SE: minitubers cold-stored 8 wk, 3 wk after treatment; for Mean fresh weight: tubers per replicate (pot)
Protocol: Minitubers (20–35 g) that were cold-stored for 8 wk were given dormancy-releasing treatments including 24 h soaking in GA3 (500 mg l^−1), 100% signal solution, or water. Other treatments included BE (0.2 m l^−1), cutting in half, and the control. […] Five minitubers per treatment were individually planted into 11×12 cm plastic pots in the greenhouse. The potting mixture was 2:1 peat:perlite without fertilizer added. The pots were arranged in a complete randomized design and watered equally every alternate day. Harvest occurred after 60 d and tuber yields (number and fresh weight) were recorded.

potato microtubers [5] = experiment: sprouting and multiple sprouting of microtubers cold-stored 8 wk; conditions: Microtuber (CS8W); for Sprouting (number of sprouted tubers): GA3 500 mg l^−1 / 100% signal solution / Bromoethane 0.2 ml l^−1
Protocol: as §1

potato minitubers [6] = experiment: GA3 and 100% signal solution, dormancy breaking of minitubers cold-stored 3 weeks
Protocol: Minitubers (20–30 g) with 3 wk cold storage treatment were soaked for 24 h in 500 mg l^−1 GA3, 100% signal solution, or a mixture of the two. Another treatment involved successive soaking for 12 h each, in first GA3, and then signal solution. A control treatment without soaking was also performed. Eight minitubers were used per treatment which were applied at room temperature (20° C.). […] were observed after 2 wk and the number of sprouted minitubers and the number with multiple sprouts were counted.

[7] = tested on: alfalfa (Medicago sativa); experiment: germination of alfalfa seeds (petri plate); conditions: after 24 h of treatment
Protocol: Following the methods described above, the LCO most abundantly produced by R. meliloti (Nod Rm-V(C16:2, S)) was isolated and tested on alfalfa (Medicago sativa) seeds. Briefly, 10 seeds were placed in a disk of filter paper on a petri plate. The filter paper was wetted with 5 ml of the appropriate LCO solution. Data were taken at 12 hour intervals upon the radicle (an embryonic root). The number of seed with an emerged radicle were counted. Each treatment was repeated four times. The data presented in table 9 indicate a clear acceleration of growth. In this case no standard for HPLC calibration was available, so a relative dilution series was used. […] In each case, a stimulation of seed germination was observed. Of note, Rhizobium leguminosarum produces a large number of LCOs.

[8] = single agent 24 h soak (GA3 500 mgl^−1 or 100% SS), after 2 wk

SMILES	Sprouting (number of sprouted tubers) (potato minitubers [3]; Minituber (CS2W), 1 wk)	Sprouting (number of sprouted tubers) (potato minitubers [3]; Minituber (CS2W), 2 wk)	Sprouting (number of sprouted tubers) (potato minitubers [3]; Minituber (CS2W), 3 wk)	Sprouting (number of sprouted tubers) (potato minitubers [3]; Minituber (CS2W), 4 wk)	Sprouting (number of sprouted tubers) (potato minitubers [3]; Minituber (CS8W), 1 wk)	Sprouting (number of sprouted tubers) (potato minitubers [3]; Minituber (CS8W), 2 wk)	Sprouting (number of sprouted tubers) (potato minitubers [3]; Minituber (CS8W), 3 wk)	number of tubers with multiple sprouts (potato minitubers [3]; Minituber (CS8W), 3 wk)	Sprouting (number of sprouted tubers) (potato minitubers [3]; Minituber (CS8W), 4 wk)	number of tubers with multiple sprouts (potato minitubers [3]; Minituber (CS8W), 4 wk)	Sprouting (number of sprouted tubers) (potato minitubers [3]; Minituber (NCS), 1 wk)	Sprouting (number of sprouted tubers) (potato minitubers [3]; Minituber (NCS), 2 wk)	Sprouting (number of sprouted tubers) (potato minitubers [3]; Minituber (NCS), 3 wk)	Sprouting (number of sprouted tubers) (potato minitubers [3]; Minituber (NCS), 4 wk)	Mean number of tubers produced per replicate (potato minitubers [4])	Mean number sprouts at planting ± SE (potato minitubers [4])	Mean fresh weight (potato minitubers [4]) [g·days]	Sprouting (number of sprouted tubers) (potato microtubers [5]; 1 wk)	Sprouting (number of sprouted tubers) (potato microtubers [5]; 2 wk)	Sprouting (number of sprouted tubers) (potato microtubers [5]; 3 wk)	other results
C=C1C[C@]23C[C@@]1(O)CC[C@H]2[C@@]12C=C[C@H](O)[C@@](C)(C(=O)O1)[C@H]2[C@@H]3C(=O)O [GA3, gibberellic acid]	0	0/6 and 0	3/6	5/6	5/6	6/6	6/6	(6)	6/6	(6)	0	0/6 and 0	3/6	4/6	3.6	4.2±0.37	11.13	4/6	5/6	6/6	Mean No. sprouts ± SE (potato microtubers [1]; GA3 500 mgl^−1 24 h): 1.71±0.28; No. sprouted microtubers (potato microtubers [1]; GA3 500 mgl^−1 24 h): 7/7; Mean number of sprouts ± SE (potato microtubers [2]; + light): 2.5 ± 0.5; Number of multiple sprouted microtubers (2 wk) (potato microtubers [2]; + light): 2/5; Number of sprouted microtubers (potato microtubers [2]; + light, 1 wk): 1/5; Number of sprouted microtubers (potato microtubers [2]; + light, 2 wk): 5/5; Mean number of sprouts ± SE (potato microtubers [2]; − light): 2.5 ± 0.3; Number of multiple sprouted microtubers (2 wk) (potato microtubers [2]; − light): 4/5; Number of sprouted microtubers (potato microtubers [2]; − light, 1 wk): 5/5; Number of sprouted microtubers (potato microtubers [2]; − light, 2 wk): 5/5; number of tubers with multiple sprouts (potato minitubers [3]; Minituber (CS2W), 4 wk): (2); number of tubers with multiple sprouts (potato microtubers [5]; 3 wk, six tubers per treatment, doses as title): (3); Sprouting (number of sprouted tubers) (potato microtubers [5]; 4 wk): 6/6; sprouting (potato minitubers [6]; 24 h soak, GA3 500 mg l^−1 alone or together with 100% signal solution, 2 wk): 100%; Mean number of sprouts ± SE (potato minitubers [6]; [8]): 3.37 ± 0.62; Number of minituber with multiple sprouts (potato minitubers [6]; [8]): 6/8; Number of sprouted minituber (potato minitubers [6]; [8]): 8/8
CCCCCC/C=C\CCCCC/C=C/C(=O)N[C@H]1[C@H](O[C@H]2[C@H](O)[C@@H](NC(C)=O)[C@H](O[C@H]3[C@H](O)[C@@H](NC(C)=O)[C@H](O[C@H]4[C@H](O)[C@@H](NC(C)=O)[C@H](O[C@H]5[C@H](O)[C@@H](NC(C)=O)C(O)O[C@@H]5COS(=O)(=O)O)O[C@@H]4CO)O[C@@H]3CO)O[C@@H]2CO)O[C@H](CO)[C@@H](O)[C@@H]1O (stereo partly drawn) [Nod Rm-V(C16:2, S)]																					Percent germination ([7]; 10^−1 dilution): 26.6 ab Percent; Percent germination ([7]; 10^−2 dilution): 26.6 ab Percent; Percent germination ([7]; 10^−3 dilution): 36.6 a Percent
CCBr [Bromoethane]	0	0	0	2/6	3/6	4/6	6/6	(4)	6/6	(4)	0	0	0	0	2.0	1.8 ± 0.20	14.01	2/6	4/6	4/6	Mean No. sprouts ± SE (potato microtubers [1]; Bromoethane (0.2 ml l^−1)): 1.0 ± 0; No. sprouted microtubers (potato microtubers [1]; Bromoethane (0.2 ml l^−1)): 1/7; number of tubers with multiple sprouts (potato minitubers [3]; Minituber (CS8W), 2 wk): (1); number of tubers with multiple sprouts (potato minitubers [3]; Minituber (CS8W), 2 wk, listed as BE): 1/6; Mean number sprouts at planting ± SE (potato minitubers [4]; listed as BE): 1.8±0.2; Sprouting (number of sprouted tubers) (potato microtubers [5]; 4 wk): 6/6
